Reference: US20050208512A1, “Determining the chemosensitivity of cells to cytotoxic agents” (The Ohio State University Research Foundation, priority 2003, published 2005)
Entries after “also recorded” stand apart in the source; their conditions may differ. Read-outs that look alike come from different tables or passages of the source.

Experiments:
Type in all cases: cell-based, human
NCI/ADR-RES cells = assay: SRB cytotoxicity assay in NCI/ADR-RES cells transfected with ABCB1 or mock siRNA; conditions: for Fold reversal: mock vs ABCB1 siRNA; for effect of ABCB1 siRNA on chemosensitivity to the drug: result in words
Protocol: (§1) Human cancer cells were transfected with ABCB1, ABCB5 or mock siRNA. Drug activity was measured with the SRB assay. IC50 is the concentration that produced 50% inhibition of cell growth compared to controls. Results represent the mean of two or mean±SD of at least three independent experiments.
(§2) We next compared growth-inhibitory IC50 values of siRNA-treated to that of mock-treated cells using a sulforhodamine B (SRB) cell proliferation assay.
(§3) Cell lines, obtained from Division of Cancer Treatment and Diagnosis at NCI, were cultured in RPMI 1640 containing 10% heat-inactivated fetal calf serum in a 5% CO2 incubator at 37° C. Transfection was performed with TransMessenger Transfection Reagent (QIAGEN). To down-regulate ABCB1 or ABCB5, cancer cells were transfected with 0.3 or 0.6 μM siRNA. For RNA extraction, cells were harvested 48 hours after transfection.
(§4) Cytotoxicity assay. 5FU, Camptothecin, and Mitoxathone were obtained from Sigma. The other compounds were from Developmental Therapeutics Program at NCI. […] Anticancer drugs were added in a dilution series in 6 replicated wells. After 4 days, incubation was terminated by replacing the medium with 100 μl 10% trichloroacetic acid (Sigma, St. Louis, Mo.) in 1×PBS, followed by incubation at 4° C. for at least 1 hour. Subsequently, the plates were washed with water and air-dried. The plates were stained with 100 μl 0.4% SRB (Sigma) in 1% acetic acid for 30 min at room temperature. Unbound dye was washed off with 1% acetic acid. After air-drying and re-solubilization of the protein-bound dye in 10 mM Tris-HCl (pH 8.0), absorbance was read by a micro-plate reader at 570 nm. To determine the IC50 values, the absorbance of control cells without drug was set at 1. Dose-response curves were plotted using SigmaPlot software (RockWare, Golden, Colo.). Each experiment was performed independently at least three times.

SK-MEL-28 cells = assay: SRB cytotoxicity assay in SK-MEL-28 cells transfected with ABCB5 or mock siRNA; conditions: for IC50: 4 days drug, SRB; for Fold reversal: mock vs ABCB5 siRNA; for effect of ABCB5 siRNA on chemosensitivity to the drug: result in words
Protocol: Human cancer cells were transfected with ABCB1, ABCB5 or mock siRNA. Drug activity was measured with the SRB assay. […] Results represent the mean of two or mean±SD of at least three independent experiments.
To identify suitable ABCB5 domains for siRNA-mediated gene silencing, siRNA duplexes against three target domains were synthesized and transfected into SK-MEL-28 cells.
Transfection was performed with TransMessenger Transfection Reagent (QIAGEN). To down-regulate ABCB1 or ABCB5, cancer cells were transfected with 0.3 or 0.6 μM siRNA. For RNA extraction, cells were harvested 48 hours after transfection.
as §4

HCT-15 cells = assay: SRB cytotoxicity assay in HCT-15 cells transfected with ABCB1 or mock siRNA; conditions: for Fold reversal: mock vs ABCB1 siRNA
Protocol: as §1, §2, §3, §4

[1] = Homo sapiens, 96 h, NCI/ADR-RES cells, ABCB1 siRNA, 4 days drug, SRB, read-out: IC50 (μM) siRNA
[2] = Homo sapiens, 96 h, NCI/ADR-RES cells, mock siRNA, 4 days drug, SRB, read-out: IC50 (μM) Mock
[3] = Homo sapiens, 96 h, ABCB5 siRNA, read-out: IC50 (μM) siRNA
[4] = Homo sapiens, 96 h, mock siRNA, read-out: IC50 (μM) Mock
[5] = ABCB5 siRNA, read-out: IC50 (μM) siRNA
[6] = mock siRNA, read-out: IC50 (μM) Mock
[7] = Homo sapiens, 96 h, HCT-15 cells, ABCB1 siRNA, 4 days drug, SRB, read-out: IC50 (μM) siRNA
[8] = Homo sapiens, 96 h, HCT-15 cells, mock siRNA, 4 days drug, SRB, read-out: IC50 (μM) Mock

Row | SMILES | IC50 (NCI/ADR-RES cells; [1]) [µM] | IC50 (NCI/ADR-RES cells; [2]) [µM] | Fold reversal (NCI/ADR-RES cells; NCI/ADR-RES cells) | Fold reversal (SK-MEL-28 cells) | effect of ABCB5 siRNA on chemosensitivity to the drug (SK-MEL-28 cells) | Fold reversal (HCT-15 cells; HCT-15 cells) | further results
1 | O=c1[nH]cc(F)c(=O)[nH]1 [5FU, fluorouracil] | 1000 | 900 | 0.90 | 1.96 ± 0.16 | Enhanced chemosensitivity | – | effect of ABCB1 siRNA on chemosensitivity to the drug (NCI/ADR-RES cells; NCI/ADR-RES cells): unaffected; also recorded: no effect on potency; IC50 (SK-MEL-28 cells; [3]): 6.43 ± 2.67 µM; IC50 (SK-MEL-28 cells; [4]): 12.4 ± 4.6 µM
2 | COc1cc(NS(C)(=O)=O)ccc1Nc1c2ccccc2nc2ccccc12 [AMSA] | – | – | – | – | no change in potency | – | –
3 | CCS(=O)(=O)O.CN(C)C(=O)c1cccc(COc2ccc(N3C(N)=NC(N)=NC3(C)C)cc2Cl)c1 [Baker's antifol, Baker's-soluble-antifol] | – | – | 3.23 ± 0.45 | – | – | 1.47 ± 0.29 | IC50 (NCI/ADR-RES cells; NCI/ADR-RES cells, ABCB1 siRNA, 4 days drug, SRB, read-out: IC50 (μM) siRNA): 131 ± 36.7 µM; IC50 (NCI/ADR-RES cells; NCI/ADR-RES cells, mock siRNA, 4 days drug, SRB, read-out: IC50 (μM) Mock): 420 ± 120 µM; IC50 (HCT-15 cells; HCT-15 cells, ABCB1 siRNA, 4 days drug, SRB, read-out: IC50 (μM) siRNA): 33.7 ± 6.23 µM; IC50 (HCT-15 cells; HCT-15 cells, mock siRNA, 4 days drug, SRB, read-out: IC50 (μM) Mock): 48.2 ± 5.18 µM
4 | C(=N\NC1=NCCN1)/c1c2ccccc2c(/C=N/NC2=NCCN2)c2ccccc12 [Bisantrene] | – | – | >4.22 | – | – | 1.39 | IC50 (NCI/ADR-RES cells; Homo sapiens, NCI/ADR-RES, 96 h, read-out: IC50 (μM) Mock): > 100 µM; IC50 (NCI/ADR-RES cells; Homo sapiens, NCI/ADR-RES, 96 h, read-out: IC50 (μM) siRNA): 23.7 µM; IC50 (HCT-15 cells; Homo sapiens, HCT-15, 96 h, read-out: IC50 (μM) Mock): 7.63 µM; IC50 (HCT-15 cells; Homo sapiens, HCT-15, 96 h, read-out: IC50 (μM) siRNA): 5.47 µM
5 | CC[C@@]1(O)C(=O)OCc2c1cc1n(c2=O)Cc2cc3cc(O)ccc3nc2-1 [CPT,10-OH] | – | – | – | 3.62 ± 1.35 | Enhanced chemosensitivity | – | IC50 (SK-MEL-28 cells; [5]): 0.14 ± 0.02 µM; IC50 (SK-MEL-28 cells; [6]): 0.48 ± 0.12 µM
6 | CC[C@@]1(O)C(=O)OCc2c1cc1n(c2=O)Cc2cc3ccccc3nc2-1 [Camptothecin] | – | – | – | 2.17 | – | – | IC50 (SK-MEL-28 cells; [3]): 0.06 µM; IC50 (SK-MEL-28 cells; [4]): 0.13 µM
7 | COC1=C2C[C@@H](C)C[C@H](OC)[C@H](O)[C@@H](C)/C=C(\C)[C@H](OC(N)=O)[C@@H](OC)/C=C\C=C(/C)C(=O)NC(=CC1=O)C2=O [Geldanamycin, geldanamycin] | 3.6 ± 0.6 | 6.84 ± 1.08 | 1.95 ± 0.45 | – | – | 1.26 ± 0.14 | IC50 (HCT-15 cells; [7]): 8.2 ± 3.88 µM; IC50 (HCT-15 cells; [8]): 9.91 ± 3.96 µM
8 | O=C1c2c(O)ccc(O)c2C(=O)c2c(NCCNCCO)ccc(NCCNCCO)c21 [Mitoxathone] | – | – | – | 1.37 | no change in potency; also recorded: no effect on potency | – | IC50 (SK-MEL-28 cells; [5]): 0.79 µM; IC50 (SK-MEL-28 cells; [6]): 1.08 µM
9 | CC(=O)O[C@H]1C(=O)[C@@]2(C)[C@H]([C@H](OC(=O)c3ccccc3)[C@]3(O)C[C@H](OC(=O)[C@H](O)[C@@H](NC(=O)c4ccccc4)c4ccccc4)C(C)=C1C3(C)C)[C@]1(OC(C)=O)CO[C@@H]1C[C@@H]2O [Palitaxel, Paclitaxel] | 1.06 | 8.01 | 7.57 | – | – | 1.72 | effect of ABCB1 siRNA on chemosensitivity to the drug (NCI/ADR-RES cells; NCI/ADR-RES cells): Enhanced chemosensitivity; IC50 (HCT-15 cells; [7]): 0.18 µM; IC50 (HCT-15 cells; [8]): 0.31 µM
